The text below walks through data of PubChem BioAssay (NCI).

“And” between values parts separate entries of the source, which are not always exact repeats. Equal entries are not always repeated.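 Tested at 5 concentrations; 48 h exposure; 96-well plates; endpoints linearly interpolated, else capped at highest concentration. At the GI50, growth is halved. TGI: concentration producing complete growth inhibition.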

Among the test systems are A549 NSCLC; EKVX NSCLC; HCT-15 colon; K-562 leukemia; NCI-H460 lung; NCI-H522 lung; OVCAR-3 ovarian; OVCAR-5 ovarian; PC-3 prostate; SF-268 CNS.
What all share (assay): NCI-60 cell line screen, 48 h

On to `O=C1CCS/C(=N/S(=O)(=O)c2ccc(N3N=C4c5ccccc5CC4C3c3cccs3)cc2)N1Cc1ccccc1` (centres undefined), for which the GI50 with A549 NSCLC was 14.4 µM; in the test with EKVX NSCLC, 25.7 µM; in the test with HCT-15 colon, 15.9 µM; in the test with K-562 leukemia it was over 100 µM; in the test with NCI-H460 lung, over 100 µM; with NCI-H522 lung, 15.9 µM. The GI50 in the test with OVCAR-3 ovarian is 25.9 µM; with OVCAR-5 ovarian it was 22.4 µM; with PC-3 prostate, 22.4 µM; in the test on SF-268 CNS, over 100 µM. In addition, the TGI is 35.8 µM in the test on A549 NSCLC; 65.8 µM in the test with EKVX NSCLC; 31.7 µM in the test with HCT-15 colon; over 100 µM with K-562 leukemia; over 100 µM in the test on NCI-H460 lung; 40 µM in the test with NCI-H522 lung. Besides, the TGI with OVCAR-3 ovarian is 60.8 µM; in the test with OVCAR-5 ovarian, 44.9 µM; with PC-3 prostate, 55.2 µM; in the test with SF-268 CNS, over 100 µM.
With `Nc1ncnc2c1nc(Cl)n2C1OC(CO)C(O)C1O` (centres undefined), the TGI in the test with A549 NSCLC is over 100 µM; in the test on EKVX NSCLC it was over 71.1 µM; in the test on HCT-15 colon it was over 100 µM; in the test with K-562 leukemia it was over 100 µM; in the test with NCI-H460 lung, over 100 µM; in the test with NCI-H522 lung, over 95.3 µM. Also, the TGI is over 100 µM in the test with OVCAR-3 ovarian, 98.6 µM with OVCAR-5 ovarian, over 71.2 µM in the test with PC-3 prostate and over 100 µM in the test with SF-268 CNS.
For the molecule `O=C(Oc1ccc2c(c1)CN(Cc1ccccc1)CO2)c1ccccc1`, the TGI with A549 NSCLC was 40.6 µM; in the test with EKVX NSCLC it was 33.4 µM; in the test on HCT-15 colon it was 36.2 µM; in the test with K-562 leukemia, 49.6 µM; with NCI-H460 lung, 36.1 µM; in the test with NCI-H522 lung it was 22.3 µM. The TGI in the test on OVCAR-3 ovarian turned out to be 29.7 µM; in the test on OVCAR-5 ovarian it was 33.6 µM; in the test with PC-3 prostate it was 29.4 µM; with SF-268 CNS, 33 µM.
As to `Fc1ccc(-c2nn3c(COc4ccc(Cl)cc4)nnc3s2)cc1Oc1ccccc1`, the GI50 with A549 NSCLC is 21.9 µM; with EKVX NSCLC, 30.8 µM; in the test with HCT-15 colon, over 60.6 µM; in the test on K-562 leukemia it was 42.1 µM; in the test on NCI-H460 lung it was 23.9 µM; in the test on NCI-H522 lung, 26.1 µM. The GI50 with OVCAR-3 ovarian is 14.1 µM; in the test on OVCAR-5 ovarian, 24.5 µM; with PC-3 prostate it was 0.0735 µM; in the test on SF-268 CNS, 20 µM. Also, the TGI in the test on A549 NSCLC is over 100 µM; in the test on EKVX NSCLC, over 74.2 µM; in the test on HCT-15 colon, over 100 µM; in the test on K-562 leukemia it was over 100 µM; with NCI-H460 lung, over 54.5 µM; with NCI-H522 lung, over 66.8 µM. Also, the TGI was 37.8 µM in the test on OVCAR-3 ovarian, over 59.1 µM with OVCAR-5 ovarian, 13.6 µM with PC-3 prostate and 54.1 µM with SF-268 CNS.
Turning to `CCCCCCCCCCCCOC1C(C(CC(=O)N2CCN(Cc3ccc4c(c3)OCO4)CC2)NS(=O)(=O)c2cc(Cl)cc(Cl)c2)OC2OC(C)(C)OC21` (centres undefined), the GI50 with A549 NSCLC is 8.48 µM; in the test on EKVX NSCLC, 19.1 µM; in the test with HCT-15 colon, over 100 µM; with K-562 leukemia, 14.8 µM; with NCI-H460 lung it was 5.44 µM; with NCI-H522 lung, 26.9 µM. In addition, the GI50 with OVCAR-3 ovarian was 20.3 µM; in the test on OVCAR-5 ovarian, 6.49 µM; in the test with PC-3 prostate, 4.04 µM; with SF-268 CNS it was 12.3 µM. For the same molecule, the TGI in the test on A549 NSCLC was over 100 µM; with EKVX NSCLC, over 100 µM; in the test with HCT-15 colon, over 100 µM; in the test with K-562 leukemia, over 100 µM; in the test with NCI-H460 lung, 35 µM; with NCI-H522 lung, over 100 µM. Also, the TGI in the test with OVCAR-3 ovarian is over 100 µM; in the test on OVCAR-5 ovarian, over 100 µM; with PC-3 prostate, over 100 µM; in the test on SF-268 CNS, over 91.5 µM.
As to `Nc1nc(=S)c2[nH]cnc2[nH]1`, the GI50 in the test on A549 NSCLC is 2.29 µM and 4.7 µM and 5.85 µM; in the test with HCT-15 colon, 0.515 µM and 2.51 µM and 1.7 µM; in the test on K-562 leukemia, 0.488 µM; in the test on NCI-H460 lung, 0.332 µM and 0.989 µM; in the test with NCI-H522 lung it was 0.418 µM and 2.07 µM and 1 µM; in the test with OVCAR-3 ovarian, 0.446 µM and 1.44 µM and 1.1 µM. Further, the GI50 in the test on OVCAR-5 ovarian is 0.498 µM and 1.93 µM; in the test on PC-3 prostate, 1.28 µM and 3.35 µM and 2.83 µM; with SF-268 CNS, 0.525 µM and 0.926 µM. Also, the TGI was > 57.7 µM and 105 µM and 85.1 µM with A549 NSCLC; > 100 µM and 143 µM and > 250 µM in the test with EKVX NSCLC; > 100 µM and 51.6 µM and 38.9 µM with HCT-15 colon; 74.1 µM and 8.6 µM in the test with K-562 leukemia; 7 µM and 16.8 µM and 19.8 µM with NCI-H460 lung; 3.04 µM and 6.04 µM and 7.26 µM with NCI-H522 lung. Besides, the TGI in the test with OVCAR-3 ovarian is 6.32 µM and 7.68 µM and 9.64 µM; in the test on OVCAR-5 ovarian, > 100 µM and 46 µM and > 250 µM; in the test with PC-3 prostate it was > 100 µM and 185 µM and > 250 µM; with SF-268 CNS it was > 100 µM and 149 µM and 84 µM.
For the molecule `NC(N)=N/N=C/c1c(-c2ccncc2)nc2sc(Cl)cn12`, the GI50 was 20.2 µM with A549 NSCLC; 21 µM in the test with EKVX NSCLC; 17.6 µM in the test with HCT-15 colon; 2.96 µM in the test on K-562 leukemia; 27.5 µM in the test with NCI-H460 lung; 10.1 µM in the test on NCI-H522 lung. Further, the GI50 with OVCAR-3 ovarian was 5.55 µM; with OVCAR-5 ovarian, 7.1 µM; in the test on PC-3 prostate, 5.8 µM; in the test with SF-268 CNS, 5.31 µM. Moreover, the TGI was 40.4 µM in the test on A549 NSCLC; 39.2 µM with EKVX NSCLC; 36.3 µM in the test with HCT-15 colon; 13.3 µM with K-562 leukemia; over 59.2 µM with NCI-H460 lung; over 28.5 µM with NCI-H522 lung. In addition, the TGI in the test with OVCAR-3 ovarian came out at 11.6 µM; with OVCAR-5 ovarian, 21.4 µM; in the test on PC-3 prostate, 18.8 µM; with SF-268 CNS, 15.3 µM.
As for `CN(C)c1ccc(N=C2C=CC(=C(C#N)C#N)c3ccccc32)cc1`, the TGI stood at 13.7 µM in the test on A549 NSCLC; 19.1 µM in the test with EKVX NSCLC; 4.72 µM with HCT-15 colon; 5.71 µM with K-562 leukemia; 7.08 µM with NCI-H460 lung; 0.305 µM with NCI-H522 lung. In addition, the TGI amounted to 1.46 µM in the test with OVCAR-3 ovarian, 10.6 µM with OVCAR-5 ovarian, 10.8 µM with PC-3 prostate and 8.1 µM in the test with SF-268 CNS.
